Laboratory results: patent US6669925B1, “Sigma-2 receptors as biomarkers of tumor cell proliferation” (Wake Forest University, priority 2000, dated 2003)
Like-named read-outs stand apart in the source and are kept apart here.

What was measured:
[1] = biological target: T1, σ2 receptors (Rattus norvegicus, UniProt Q5U3Y7); assay: In vitro binding to σ2 receptors: inhibition of [3H]DTG binding to rat liver homogenates
T1 construct: from tissue; host or cells: rat liver homogenate (per the earlier reading's assay description)
T1 sequence (Q5U3Y7 1-176): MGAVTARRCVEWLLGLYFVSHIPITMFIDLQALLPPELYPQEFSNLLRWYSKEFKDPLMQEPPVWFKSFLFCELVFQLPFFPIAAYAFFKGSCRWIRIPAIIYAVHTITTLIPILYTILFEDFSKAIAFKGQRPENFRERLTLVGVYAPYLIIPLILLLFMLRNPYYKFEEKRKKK
Source text: (§1) The ability to bind to sigma-1 or sigma-2 can be measured using methods currently known to those of skill in the art or using those techniques described in U.S. application Ser. No. 60/013717, filed Mar. 30, 1996; in U.S. application Ser. No. 09/142935, filed Sep. 17, 1998; or in U.S. application Ser. No. 09/528398, filed Mar. 20, 2000.

[2] = biological target: T2, σ1 receptors (Cavia porcellus, UniProt Q60492); assay: In vitro binding to σ1 receptors: inhibition of [3H](+)-pentazocine binding to guinea pig brain homogenates
T2 construct: from tissue; host or cells: guinea pig brain homogenate (per the earlier reading's assay description)
T2 sequence (Q60492 whole entry): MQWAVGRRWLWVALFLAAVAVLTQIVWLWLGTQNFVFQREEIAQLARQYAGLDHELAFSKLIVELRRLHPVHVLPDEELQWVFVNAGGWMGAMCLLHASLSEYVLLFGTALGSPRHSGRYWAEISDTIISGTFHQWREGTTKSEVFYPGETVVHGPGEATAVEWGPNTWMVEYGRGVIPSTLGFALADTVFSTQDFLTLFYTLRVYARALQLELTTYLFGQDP
Source text: as §1

[3] = Table II, footnote a not given, read-out: σ1 (binding to σ1 receptors)
[4] = Table II, footnote b not given, read-out: σ2 (binding to σ2 receptors)
[5] = Table I, guinea pig brain homogenates (n = 3-5), read-out: σ1: Ki for inhibition of the binding of [3H](+)-pentazocine

Row | Structure (SMILES) | Ki [1] | Ki [2] | Ki [2, 3] | Ki [1, 4] | Ki [2, 5]
1 | COc1ccc(C)cc1NC(=O)OC1CC2CCCC(C1)N2CCCCCc1ccccc1 (stereo not shown) [Compound 6d] | 1.82 ± 0.19 nM | 17.3 ± 1.2 nM | – | – | –
2 | COc1ccc(C)cc1NC(=O)OC1CC2CCCC(C1)N2CCc1ccccc1 (stereo not shown) [Compound 6a] | 1.2 ± 0.1 nM | 59.9 ± 4.6 nM | – | – | –
3 | COc1ccc(C)cc1NC(=O)OC1CC2CCCC(C1)N2CCCCc1ccccc1 (stereo not shown) [Compound 6c] | 2.92 ± 0.21 nM | 65.5 ± 4.3 nM | – | – | –
4 | COc1ccc(C)cc1NC(=O)OC1CC2CCCC(C1)N2C/C=C/c1ccc(N)cc1 (stereo not shown) | 3.6 nM | – | – | – | –
5 | COc1ccc(C)cc1NC(=O)OC1CC2CCCC(C1)N2CCc1ccc(N)cc1 (stereo not shown) [Compound 7c] | 7.78 ± 0.61 nM | – | > 1000 nM | – | –
6 | COc1ccc(C)cc1NC(=O)OC1CC2CCCC(C1)N2CCCc1ccc(N)cc1 (stereo not shown) | 10.5 nM | – | – | – | –
7 | COc1ccc(C)cc1NC(=O)OC1CC2CCCC(C1)N2CCc1ccc(I)cc1 (stereo not shown) [Compound 7a] | – | – | 175 ± 6.71 nM | 141 ± 8.36 nM | –
8 | COc1ccc(C)cc1NC(=O)OC1CC2CCCC(C1)N2Cc1ccccc1 (stereo not shown) [—, reference compound] | 3.06 ± 0.83 nM | 92.5 ± 11 nM | – | – | –
9 | COc1ccc(C)cc1NC(=O)OC1CC2CCCC(C1)N2CCCCCCc1ccccc1 (stereo not shown) [Compound 6e] | 7.61 ± 0.41 nM | – | – | – | 214 ± 23.5 nM
10 | COc1ccc(C)cc1NC(=O)OC1CC2CCCC(C1)N2CCc1ccc(NC(=O)OC(C)(C)C)cc1 (stereo not shown) [Compound 7b] | – | – | > 1000 nM | > 1000 nM | –
11 | COc1ccc(C)cc1NC(=O)OC1CC2CCCC(C1)N2CCCCCCCc1ccccc1 (stereo not shown) [Compound 6f] | 7.6 ± 0.18 nM | – | – | – | 230 ± 28.6 nM
12 | COc1ccc(C)cc1NC(=O)OC1CC2CCCC(C1)N2CCCc1ccccc1 (stereo not shown) [Compound 6b] | 1.97 ± 0.12 nM | 72.9 ± 1.6 nM | – | – | –
